Data from ChEMBL document CHEMBL6087420, “Synthesis and pharmacodynamic evaluation of 2-aminoindole derivatives against influenza A virus in vitro/vivo” (Eur J Med Chem, 2025).
Calls of active or inactive are those of the source. The calls are words filed in the database; no cut-off is given here.

Columns and labels:
[1] = Cytotoxicity against dog MDCK cells after 72 hrs incubation by MTT assay; format: toxicity, cell-based, Canis lupus familiaris
Influenza A virus [2] = experiment: Antiviral activity against influenza A virus H1NI (A/Weiss/43) virus infected in dog MDCK cells assessed as viral inhibition treated after 2 hrs of viral infection measured at 72 hrs incubation by MTT assay; format: functional
Influenza A virus [3] = experiment: Inhibition of influenza A virus infection induced apoptosis in MDCK cells infected with influenza virus assessed as viable cells at 25 uM incubated for 36 hrs by AnnexinV-FITC/PI staining based flow cytometry (reference value: 66.9%); format: functional
Influenza A virus [4] = experiment: Inhibition of influenza A virus infection induced apoptosis in MDCK cells infected with influenza virus assessed as late apoptotic cells at 50 uM incubated for 36 hrs by AnnexinV-FITC/PI staining based flow cytometry (reference value: 13.2%); format: functional; design: scale not given: the % may be the effect or the level left
Influenza A virus [5] = experiment: Inhibition of influenza A virus infection induced apoptosis in MDCK cells infected with influenza virus assessed as late apoptotic cells at 100 uM incubated for 36 hrs by AnnexinV-FITC/PI staining based flow cytometry (reference value: 13.2%); format: functional; design: scale not given: the % may be the effect or the level left
Influenza A virus [6] = experiment: In vivo antiviral activity against influenza A virus infected in BALB/c mouse assessed as reduction in weight loss at 25 to 100 mg/kg; format: functional, organism-based; settings: dose 25-100 mg/kg
Influenza A virus [7] = experiment: Antiviral activity against influenza A virus infected in human A549 cells assessed as inhibition of IL-13 expression by qRT-PCR analysis; format: functional, organism-based
Influenza A virus [8] = experiment: Inhibition of neuraminidase in Influenza A virus
Influenza A virus [9] = experiment: In vivo antiviral activity against influenza A virus infected in BALB/c mouse assessed as reduction in IAV-M2 mRNA level in lung at 25 to 100 mg/kg measured after 6 dpi; format: functional, organism-based; settings: dose 25-100 mg/kg
Influenza A virus [10] = experiment: In vivo antiviral activity against influenza A virus infected in BALB/c mouse assessed as reduction in iNOS mRNA level in lung at 25 to 100 mg/kg measured after 6 dpi; format: functional, organism-based; settings: dose 25-100 mg/kg
Influenza A virus [11] = experiment: In vivo antiviral activity against influenza A virus infected in BALB/c mouse assessed as reduction in Caspase-1 mRNA level in lung at 25 to 100 mg/kg measured after 6 dpi; format: functional, organism-based; settings: dose 25-100 mg/kg
[12] = Toxicity in healthy BALB/c mouse assessed as change in blood indicators at 25 to 100 mg/kg administered through gavage for 6 days; format: organism-based; settings: in vivo, po, 144 h, dose 25-100 mg/kg, time 6 day

## COc1ccc2c(c1)c(-c1ccccc1)c(NS(C)(=O)=O)n2S(=O)(=O)c1ccc(C)cc1
[1]
  CC50 at 72 h: 669 µM
Influenza A virus [2]
  inhibition (INH): 87.37%
Influenza A virus [3]
  Activity: 71.9%
Influenza A virus [4]
  Activity: 4.07%
Influenza A virus [5]
  Activity: 1.62%
Influenza A virus [6]
  Activity: inactive
Influenza A virus [7]
  Activity: Active
Influenza A virus [8]
  inhibition: inactive
Influenza A virus [9]
  Activity: Active
Influenza A virus [10]
  Activity: Active
Influenza A virus [11]
  Activity: Active
[12]
  Activity: Non-toxic
